The text below walks through data of US8524909B2, “Tetrahydro-pyran derivatives” (Hoffmann-La Roche Inc., priority 2010, dated 2013).

Each structure is given as a SMILES string.

Chain of mGlyT-1b (P28571 other isoform, or with tags, fused parts or gaps isoform P28571-2): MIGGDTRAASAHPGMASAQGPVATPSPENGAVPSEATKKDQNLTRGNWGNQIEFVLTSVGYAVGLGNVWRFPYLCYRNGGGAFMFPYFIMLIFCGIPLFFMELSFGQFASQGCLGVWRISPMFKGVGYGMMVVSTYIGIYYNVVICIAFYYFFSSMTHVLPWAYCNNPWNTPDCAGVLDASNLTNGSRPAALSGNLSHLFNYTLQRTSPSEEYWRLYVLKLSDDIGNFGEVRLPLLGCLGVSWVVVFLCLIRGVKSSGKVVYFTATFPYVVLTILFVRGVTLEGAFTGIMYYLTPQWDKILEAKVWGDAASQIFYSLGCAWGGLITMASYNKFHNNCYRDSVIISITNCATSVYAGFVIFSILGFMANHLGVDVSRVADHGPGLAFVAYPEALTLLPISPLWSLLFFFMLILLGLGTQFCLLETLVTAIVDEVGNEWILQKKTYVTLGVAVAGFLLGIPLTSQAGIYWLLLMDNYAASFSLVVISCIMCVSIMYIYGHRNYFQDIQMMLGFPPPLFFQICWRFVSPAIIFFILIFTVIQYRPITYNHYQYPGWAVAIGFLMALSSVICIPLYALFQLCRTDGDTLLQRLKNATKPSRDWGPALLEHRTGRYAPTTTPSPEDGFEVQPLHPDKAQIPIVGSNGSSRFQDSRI

The assay addresses mGlyT-1b (Mus musculus (Mouse), UniProt P28571). Description: Glycine Uptake Inhibition Assay (mGlyT-1b). Format: cell-based. The note with it: [3H]-glycine uptake in Flp-in-CHO cells stably transfected with mGlyT1b cDNA; 20 min preincubation at 22° C. As to the method:
DMEM complete medium: Nutrient mixture F-12 (Gibco Life-technologies), fetal bovine serum (FBS) 5%, (Gibco life technologies), Penicillin/Streptomycin 1% (Gibco life technologies), Hygromycin 0.6 mg/ml (Gibco life technologies), Glutamine 1 mM Gibco life technologies)
Uptake buffer (UB): 150 mM NaCl, 10 mM Hepes-Tris, pH 7.4, 1 mM CaCl2, 2.5 mM KCl, 2.5 mM MgSO4, 10 mM (+) D-glucose.
Flp-in™-CHO (Invitrogen Cat no R758-07) cells stably transfected with mGlyT1b cDNA.
Glycine Uptake Inhibition Assay (mGlyT-1b)
On day 1 mammalian cells, (Flp-in™-CHO), transfected with mGlyT-1b cDNA, were plated at the density of 40,000 cells/well in complete F-12 medium, without hygromycin in 96-well culture plates. On day 2, the medium was aspirated and the cells were washed twice with uptake buffer (UB). The cells were then incubated for 20 min at 22° C. with either (i) no potential competitor, (ii) 10 mM non-radioactive glycine, (iii) a concentration of a potential inhibitor. A range of concentrations of the potential inhibitor was used to generate data for calculating the concentration of inhibitor resulting in 50% of the effect (e.g. IC50, the concentration of the competitor inhibiting glycine uptake of 50%). A solution was then immediately added containing [^3H]-glycine 60 nM (11-16 Ci/mmol) and 25 μM non-radioactive glycine. The plates were incubated with gentle shaking and the reaction was stopped by aspiration of the mixture and washing (three times) with ice-cold UB. The cells were lysed with scintillation liquid, shaken 3 hours and the radioactivity in the cells was counted using a scintillation counter.
On to `O=C(N[C@@H]1COCC[C@H]1N1CCCC1)c1ccc(C(F)(F)F)cc1C1CC1` [Example 37, (+)-2-Cyclopropyl-N-(4-pyrrolidin-1-yl-tetrahydro-pyran-3-yl)-4-trifluoromethyl-benzamide], for which the IC50 (usually the concentration needed to halve the response being measured) came out at 83.4 nM.

Regarding `COc1cc(C(F)(F)F)cc(SC)c1C(=O)N[C@@H]1COCC[C@H]1NC1CCC(O)CC1` (mixture of isomers) [Example 33, N-[(3SR,4RS)-4-(4-Hydroxy-cyclohexylamino)-tetrahydro-pyran-3-yl]-2-methoxy-6-methylsulfanyl-4-trifluoromethyl-benzamide], the IC50 amounted to 751 nM.

For the compound `COc1cc(C(F)(F)F)cc(SC)c1C(=O)N[C@@H]1COCC[C@H]1NC1CCCC1` [Example 46, (−)-N-(4-Cyclopentylamino-tetrahydro-pyran-3-yl)-2-methoxy-6-methylsulfanyl-4-trifluoromethyl-benzamide], the IC50 worked out at 158 nM.

Consider `COc1cc(C(F)(F)F)cc(SC)c1C(=O)N[C@H]1COCC[C@H]1NC1CCC1` (racemic) [Example 3, N-((3RS,4RS)-4-Cyclobutylamino-tetrahydro-pyran-3-yl)-2-methoxy-6-methylsulfanyl-4-trifluoromethyl-benzamide], for which 506 nM corresponded to half-maximal inhibition (IC50).

The compound `COc1cc(C(F)(F)F)cc(C2CC2)c1C(=O)N[C@H]1COCC[C@@H]1N1CCCC1` [Example 57] registered an IC50 of 62.5 nM.

As to `Cc1cc(C(F)(F)F)cc(C)c1C(=O)N[C@@H]1COCC[C@H]1N1CCCC1` [Example 52], the IC50 worked out at 34.1 nM.

For `COc1cc(C(F)(F)F)cc(SC)c1C(=O)N[C@@H]1COCC[C@H]1N1C[C@H]2C[C@H]2C1` [Example 34, N-[(3S,4R)-4-(3-Aza-bicyclo[3.1.0]hex-3-yl)-tetra-hydro-pyran-3-yl]-2-methoxy-6-methylsulfanyl-4-trifluoromethyl-benzamide], half-maximal inhibition (IC50) was put at 110 nM.

Compound `COc1cc(C(F)(F)F)cc(SC)c1C(=O)N[C@@H]1COCC[C@H]1NC1CCCC1` (racemic) [Example 11, N-((3SR,4RS)-4-Cyclopentylamino-tetrahydro-pyran-3-yl)-2-methoxy-6-methylsulfanyl-4-trifluoromethyl-benzamide] came in with an IC50 of 127 nM.

In turn, `CCc1cc(C(F)(F)F)cc(OC)c1C(=O)N[C@@H]1COCC[C@H]1N1CCCC1` (racemic) [Example 24, 2-Ethyl-6-methoxy-N-((3SR,4RS)-4-pyrrolidin-1-yl-tetrahydro-pyran-3-yl)-4-trifluoro-methyl-benzamide] yielded an IC50 of 64.1 nM.

`O=C(N[C@@H]1COCC[C@H]1N1CCCCC1)c1ccc(C(F)(F)F)cc1C1CC1` (racemic) [Example 19, 2-Cyclopropyl-N-((3SR,4RS)-4-piperidin-1-yl-tetrahydro-pyran-3-yl)-4-trifluoro-methylbenzamide] registered an IC50 of 81.5 nM.

The compound `Cc1cc(C(F)(F)F)cc(C)c1C(=O)N[C@@H]1COCC[C@H]1N1CCCC1` (racemic) [Example 21, 2,6-Dimethyl-N-((3SR,4RS)-4-pyrrolidin-1-yl-tetrahydro-pyran-3-yl)-4-trifluoro-methylbenzamide] displayed an IC50 of 45.2 nM.

With `O=C(N[C@@H]1COCC[C@H]1NC1CCOCC1)c1ccc(C(F)(F)F)cc1C1CC1` (racemic) [Example 17, 2-Cyclopropyl-N-[(3SR,4RS)-4-(tetrahydro-pyran-4-ylamino)-tetrahydro-pyran-3-yl]-4-trifluoro-methylbenzamide], half-maximal inhibition (IC50) required 904 nM.

As to `CCc1cc(C(F)(F)F)cc(OC)c1C(=O)N[C@H]1COCC[C@@H]1N1CCCC1` [Example 55], the concentration for half-maximal inhibition (IC50) turned out to be 48.3 nM.

As to `COc1cc(C(F)(F)F)cc(C)c1C(=O)N[C@@H]1COCC[C@H]1N1CCCC1` [Example 54], the midpoint of inhibition, the IC50, lay at 33.8 nM.

In the case of `COc1cc(C(F)(F)F)cc(SC)c1C(=O)N[C@@H]1CCOC[C@@H]1N1CCCC1` [Example 65, (+)-2-Methoxy-6-methylsulfanyl-N-(3-pyrrolidin-1-yl-tetrahydro-pyran-4-yl)-4-trifluoro-methyl-benzamide], half-maximal inhibition (IC50) required 119 nM.

With `COc1cc(C(F)(F)F)cc(SC)c1C(=O)N[C@@H]1CCOC[C@@H]1N1CCCC1` (relative stereo) [Example 63, cis-2-Methoxy-6-methylsulfanyl-N-(3-pyrrolidin-1-yl-tetrahydro-pyran-4-yl)-4-trifluoromethyl-benzamide], the IC50 was determined as 189 nM.

`O=C(N[C@@H]1COCC[C@H]1NC1CCCCC1)c1ccc(C(F)(F)F)cc1C1CC1` [Example 49]: the IC50 came out at 340 nM.

Consider `Cc1cc(C(F)(F)F)cc(C(F)(F)F)c1C(=O)N[C@H]1COCC[C@@H]1N1CCCC1` [Example 39, (+)-2-Methyl-N-trans-(4-pyrrolidin-1-yl-tetrahydro-pyran-3-yl)-4,6-bis-trifluoro-methyl-benzamide], for which it took 43.9 nM to reach half-maximal inhibition (IC50).

Compound `COc1cc(C(F)(F)F)cc(SC)c1C(=O)N[C@H]1COCC[C@@H]1N1CCC(O)C1` (mixture of isomers) [Example 7, N-[(3RS,4SR)-4-(3-Hydroxy-pyrrolidin-1-yl)-tetrahydro-pyran-3-yl]-2-methoxy-6-methylsulfanyl-4-trifluoromethyl-benzamide] displayed an IC50 of 155 nM.

`COc1cc(C(F)(F)F)cc(SC)c1C(=O)N[C@@H]1COCC[C@H]1NC(C)C1CC1` (mixture of isomers) [Example 31, N-[(3SR,4RS)-4-(1-Cyclopropyl-ethylamino)-tetrahydro-pyran-3-yl]-2-methoxy-6-methylsulfanyl-4-trifluoro-methyl-benzamide] returned an IC50 of 276 nM.

Take `COc1cc(C(F)(F)F)cc(SC)c1C(=O)N[C@H]1COCC[C@@H]1NC1CCCC1` [Example 45, (+)-N-(4-Cyclopentylamino-tetrahydro-pyran-3-yl)-2-methoxy-6-methylsulfanyl-4-trifluoromethyl-benzamide]: the midpoint of inhibition, the IC50, lay at 111 nM.

`O=C(N[C@@H]1COCC[C@H]1NC1CCCC1)c1ccc(C(F)(F)F)cc1C1CC1` (racemic) [Example 12, N-((3SR,4RS)-4-Cyclopentylamino-tetrahydro-pyran-3-yl)-2-cyclopropyl-4-trifluoromethyl-benzamide] came in with an IC50 of 75 nM.

`O=C(N[C@@H]1COCC[C@H]1NC1CCCCC1)c1ccc(C(F)(F)F)cc1C1CC1` (racemic) [Example 14, N-((3SR,4RS)-4-Cyclohexylamino-tetrahydro-pyran-3-yl)-2-cyclopropyl-4-trifluoromethyl-benzamide]: inhibition was half-maximal at 125 nM (IC50).

As to `COc1cc(C(F)(F)F)cc(SC)c1C(=O)N[C@H]1COCC[C@@H]1NC1CCC1` (racemic) [Example 4, N-((3RS,4SR)-4-Cyclobutylamino-tetrahydro-pyran-3-yl)-2-methoxy-6-methylsulfanyl-4-trifluoromethyl-benzamide], the IC50 came out at 337 nM.

In turn, `O=C(N[C@@H]1COCC[C@H]1N1CCC(O)CC1)c1ccc(C(F)(F)F)cc1C1CC1` (racemic) [Example 36] had an IC50 of 274 nM.

For `CCc1cc(C(F)(F)F)cc(C)c1C(=O)N[C@@H]1COCC[C@H]1N1CCCC1` (racemic) [Example 26, 2-Ethyl-6-methyl-N-((3SR,4RS)-4-pyrrolidin-1-yl-tetrahydro-pyran-3-yl)-4-trifluoro-methyl-benzamide], the IC50 is 17.9 nM.

In turn, `O=C(N[C@@H]1COCC[C@H]1NC1CCC1)c1ccc(C(F)(F)F)cc1C1CC1` (racemic) [Example 32, N-((3SR,4RS)-4-Cyclobutylamino-tetrahydro-pyran-3-yl)-2-cyclo-propyl-4-trifluoromethyl-benzamide] yielded an IC50 of 119 nM.

The compound `CCc1cc(C(F)(F)F)cc(OC)c1C(=O)N[C@@H]1COCC[C@H]1N1CCCC1` [Example 56, (−)-2-Ethyl-6-methoxy-N-(4-pyrrolidin-1-yl-tetrahydro-pyran-3-yl)-4-trifluoro-methyl-benzamide] had an IC50 of 15.5 nM.

As to `Cc1cc(C(F)(F)F)cc(C(F)(F)F)c1C(=O)N[C@@H]1COCC[C@H]1N1CCCC1` (racemic) [Example 10, 2-Methyl-N-((3SR,4RS)-4-pyrrolidin-1-yl-tetrahydro-pyran-3-yl)-4,6-bis-trifluoromethyl-benzamide], the IC50 turned out to be 41.2 nM.

The compound `COc1cc(C(F)(F)F)cc(SC)c1C(=O)N[C@@H]1COCC[C@H]1NC1(C)CCCC1` (racemic) [Example 28, 2-Methoxy-N-[(3SR,4RS)-4-(1-methyl-cyclo-pentylamino)-tetrahydro-pyran-3-yl]-6-methyl-sulfanyl-4-trifluoromethyl-benzamide] displayed an IC50 of 144 nM.
